Results: patent US20100035925A1, “COMPOUNDS, PHARMACEUTICAL CO[…] DMETHODS FOR […] INFECTIVITY” ([…], INC, priority 2004, published 2010)

Columns and labels:
[1] = tested on: HIV drug resistant strains (pL10R and p1617-1); assay type: cell-based

| SMILES | cytotoxicity (transfected 293 cells) | inhibitory activity on HIV infectivity (in words) [1] |
| --- | --- | --- |
| O=C(O)C[S+]([O-])c1ccc2c3c(cccc13)C(=O)c1ccccc1-2 (centres unmarked) [Compound 111] | without significant cytotoxicity |  |
| COc1ccc2c(Cc3c4ccccc4cc4ccccc34)cncc2c1O [Compound 1334] |  | lesser inhibitory activity |
